The text below walks through data of PMC3602143 (Bioorganic & medicinal chemistry letters, 2013).

The conditions of data set [1]: background statement; cited from earlier work.
In data set [2] the test system is strain of T. gondii engineered to express the bacterial GlpT. The note with it: ref [22]; cited from earlier work.
Data set [3] concerns bacteria including E. coli. As to conditions: ref [11]; cited from earlier work.
For a further data set, the system named is T. gondii. The data set can be described thus: T. gondii growth / proliferation. As to conditions: previous method of ref [22]. The class given is cell-based, Toxoplasma gondii.
For data set [4], the target named is T1, recombinant T. gondii DXR (TgDXR) (Toxoplasma gondii, UniProt S8ESX0).
T1 sequence (S8ESX0 187-632): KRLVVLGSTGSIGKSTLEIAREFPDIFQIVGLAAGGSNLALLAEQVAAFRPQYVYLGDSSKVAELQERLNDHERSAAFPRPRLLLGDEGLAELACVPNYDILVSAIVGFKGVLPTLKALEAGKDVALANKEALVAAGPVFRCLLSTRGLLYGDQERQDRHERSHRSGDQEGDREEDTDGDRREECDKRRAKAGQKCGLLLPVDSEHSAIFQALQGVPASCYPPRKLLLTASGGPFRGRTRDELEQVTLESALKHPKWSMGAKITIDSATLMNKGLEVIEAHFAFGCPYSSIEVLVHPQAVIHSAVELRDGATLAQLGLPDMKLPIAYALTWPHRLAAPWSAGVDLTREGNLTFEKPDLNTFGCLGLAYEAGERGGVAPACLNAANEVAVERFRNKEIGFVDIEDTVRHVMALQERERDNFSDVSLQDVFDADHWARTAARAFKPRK
The data set can be described thus: TgDXR enzyme inhibition assay. As to conditions: average of acetyl analogs 8 and 9 vs 6 and 7. The data set is classed as biochemical.

For another data set, the system named is malaria parasites. The note with it: ref [16]; cited from earlier work.
Another data set deals with EcDXR. As to conditions: read-out: Km of EcDXR; substrate DXP; ref [13]; cited from earlier work.
The subject of a further data set is PfDXR. As to conditions: read-out: Km of PfDXR; substrate DXP; ref [15]; cited from earlier work.
The test system of data set [5] is Mycobacterium tuberculosis DXR. As to conditions: read-out: Km of Mycobacterium tuberculosis DXR; substrate DXP; ref [23]; cited from earlier work.
Substrate in data set [6]: CC(=O)[C@@H](O)[C@H](O)COP(=O)(O)O
Kind of data set: TgDXR enzyme inhibition assay. The data set is classed as biochemical, Toxoplasma gondii. The note with it: other: DXP 10 to 450 μM, [Mg2+] = 4 mM, Michaelis-Menten fit; 30.0 °C.

On to `O=CN(O)CCCP(=O)(O)O` [Compound 1, Fosmidomycin], for which, in data set [1], the half-life in plasma result was “very short”. For the same molecule, the “killing of GlpT-expressing T. gondii” value in data set [2] was “can effectively kill”.

With `O=c1ccc(-c2ccccc2)cn1O` [Compound 5], the antibacterial activity result in data set [3] is “broad antibacterial activity”. In addition, the “block of proliferation / activity against growth of T. gondii” value with T. gondii is “does not block proliferation”.

Consider `CC(=O)N(O)CCC(c1cccnc1)P(=O)(O)O` (stereo not drawn) [Compound 8], for which the “fold less activity against TgDXR than formyl analogs 6 and 7” value in [4] was ~ 11 fold.

Regarding `CC(=O)N(O)CCC(c1ccncc1)P(=O)(O)O` (stereo not drawn) [Compound 9], the “fold less activity against TgDXR than formyl analogs 6 and 7” value in data set [4] was ~ 11 fold.

For `O=CN(O)CCC(c1ccc(Cl)c(Cl)c1)P(=O)(O)O` (stereo not drawn) [Compound 10], the antimalarial activities entry in the data set with malaria parasites is recorded as “potent”.

As for `CC(=O)N(O)CCC(c1ccc(Cl)c(Cl)c1)P(=O)(O)O` (stereo not drawn) [Compound 11], the antimalarial activities result in the data set with malaria parasites was “potent”.

On to `CC(=O)[C@@H](O)[C@H](O)COP(=O)(O)O` [DXP, 1-deoxy-D-xylulose-5-phosphate], for which the Km is 99 µM with EcDXR, 106 µM in the data set on PfDXR and 47 µM in data set [5].

B1: recombinant T. gondii DXR (TgDXR) (Toxoplasma gondii ME49) (protein)
chain: T1 sequence (S8ESX0 187-632)
In the case of B1, in data set [6], the Michaelis-Menten constant (Km) came out at 25.5 ± 3.7 µM.
